Measured values as given in ChEMBL document CHEMBL1155537, “Looking for a 5-HT7 radiotracer for positron emission tomography” (Bioorg Med Chem Lett, 2010).

Molecular target: 5-hydroxytryptamine receptor 7 (Homo sapiens) (UniProt P34969)
Assay: Binding affinity to human 5HT7 receptor expressed in CHO cells
Format: cell-based

Chain of 5-hydroxytryptamine receptor 7 (Homo sapiens) (P34969 whole entry): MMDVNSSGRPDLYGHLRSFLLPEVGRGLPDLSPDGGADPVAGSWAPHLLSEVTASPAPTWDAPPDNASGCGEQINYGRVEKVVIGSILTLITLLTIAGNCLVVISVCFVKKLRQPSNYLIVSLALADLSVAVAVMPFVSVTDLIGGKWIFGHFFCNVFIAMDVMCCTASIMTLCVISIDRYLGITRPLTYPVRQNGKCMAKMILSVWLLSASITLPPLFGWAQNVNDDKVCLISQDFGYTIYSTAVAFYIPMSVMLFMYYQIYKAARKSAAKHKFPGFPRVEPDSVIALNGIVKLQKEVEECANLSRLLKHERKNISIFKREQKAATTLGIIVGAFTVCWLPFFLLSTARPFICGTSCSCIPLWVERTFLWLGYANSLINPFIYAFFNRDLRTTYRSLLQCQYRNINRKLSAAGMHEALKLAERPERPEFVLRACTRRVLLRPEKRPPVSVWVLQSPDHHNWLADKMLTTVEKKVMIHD

Row | pKb | SMILES
1 | 7.26 | COc1ccccc1N1CCN(CCCNS(=O)(=O)c2ccc(F)cc2)CC1
2 | 7.1 | O=C(OC1CCN(CC[C@H]2CCCN2S(=O)(=O)c2ccccc2)CC1)c1ccc(F)cc1
